Patent US11459338B2, “Heterocyclic compounds as PRMT5 inhibitors” (JUBILANT EPISCRIBE LLC, priority 2018, dated 2022)
pIC50: −log10 of the molar value.

How the values were obtained:
Z-138 cells = assay: Z-138 long term proliferation assay (Cell Titer Glo); format: cell-based; details: Homo sapiens, 192 h; Z-138 cells, cell viability, day 8; read-out: PRMT5 Z138 GI50 Day 8 μM
Procedure: A compound source plate was prepared by performing ten-point 3-fold dilution in DMSO, such that the final top concentration of the compound was 10 μM, and DMSO was 0.3%. The total volume of compounds added was 20 μL. The cells were incubated for 96 h at 37° C., 5% CO2. […] The cells were re-treated with the compounds and incubated for an additional four days. Cell viability was measured on both day 4 and day 8, by adding 25 μL of Cell Titer Glo reagent to an equal volume of cell suspension. Luminescence was read on a PerkinElmer Victor3 multiplate reader. The concentration of compound inhibiting cell viability by 50% was determined using a 4-parameter, variable slope fit of the normalized dose response curves.

PRMT5/MEP50 = target: T1, PRMT5/MEP50 (Homo sapiens, UniProt O14744); assay: PRMT5/MEP50 enzyme assay on peptide substrates (3H-SAM Flashplate); format: biochemical; details: PRMT5/MEP50 10 nM, H4 1-15aa peptide 100 nM, 3H-SAM 1 μM
T1 construct: Full-length human PRMT5 (NP_006100)
T1 sequence (O14744 whole entry): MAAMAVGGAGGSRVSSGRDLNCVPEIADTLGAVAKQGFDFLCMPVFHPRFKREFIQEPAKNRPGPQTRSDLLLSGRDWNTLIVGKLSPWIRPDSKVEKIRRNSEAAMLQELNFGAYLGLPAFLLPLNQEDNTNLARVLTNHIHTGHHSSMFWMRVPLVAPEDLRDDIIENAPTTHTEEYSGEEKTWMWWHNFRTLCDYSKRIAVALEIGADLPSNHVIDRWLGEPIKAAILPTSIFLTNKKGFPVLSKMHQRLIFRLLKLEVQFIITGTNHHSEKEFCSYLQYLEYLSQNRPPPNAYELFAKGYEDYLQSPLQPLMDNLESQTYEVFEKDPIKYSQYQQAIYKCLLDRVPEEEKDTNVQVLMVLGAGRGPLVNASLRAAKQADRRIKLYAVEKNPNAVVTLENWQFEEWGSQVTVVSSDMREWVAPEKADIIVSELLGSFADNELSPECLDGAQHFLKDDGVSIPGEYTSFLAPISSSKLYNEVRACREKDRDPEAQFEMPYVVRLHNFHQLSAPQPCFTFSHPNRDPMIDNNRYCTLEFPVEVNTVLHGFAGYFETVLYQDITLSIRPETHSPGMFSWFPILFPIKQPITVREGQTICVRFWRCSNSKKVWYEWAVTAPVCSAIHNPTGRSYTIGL
T1 sequence (Q9BQA1 whole entry partner): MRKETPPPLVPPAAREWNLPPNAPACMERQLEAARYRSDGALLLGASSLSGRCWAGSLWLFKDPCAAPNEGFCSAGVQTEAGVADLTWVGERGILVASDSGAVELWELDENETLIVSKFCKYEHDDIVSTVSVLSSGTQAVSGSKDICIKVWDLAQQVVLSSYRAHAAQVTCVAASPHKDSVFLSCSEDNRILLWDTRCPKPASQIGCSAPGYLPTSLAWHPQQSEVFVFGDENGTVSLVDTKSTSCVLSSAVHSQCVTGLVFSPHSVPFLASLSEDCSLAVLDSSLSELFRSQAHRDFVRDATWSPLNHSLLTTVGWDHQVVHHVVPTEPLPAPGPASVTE
From the text: General materials like S-adenocylmethionine (SAM), S-adenosylhomocysteine (SAH), Tris-HCl, DTT, […] (BSA) and Tween-20 were purchased from Sigma-Aldrich. 3H-SAM and 384-well streptavidin Flashplates were purchased from Perkin Elmer. Substrates that were used were Peptide representative of human Histone 4 residues 1-15 which was purchased from Rockland antibodies and assays.
PRMT5/MEP50 Enzyme assay on Peptide Substrates.
The assays were all performed in a buffer consisting of 50 mMTris-HCl, pH 8, 1 mM DTT, 0.01% BSA, 0.01% Tween-20, prepared on the day of use. Test compounds were diluted 3-fold in assay buffer (final DMSO concentration of 1%) and added into a 384-well OptiPlate (PerkinElmer, #6007290). A cocktail (10 μL) of PRMT5/MEP50 enzyme and the peptide was added to the wells. The compounds were allowed to incubate with PRMT5/MEP50 for 30 min at room temperature, then 5 μL of ^3H-SAM was added to initiate the reaction. The final concentrations of the components were as follows: PRMT5/MEP50-10 nM, H4, 1-15aa peptide-100 nM, ^3H-SAM-1 μM. The assays were stopped by the addition of 1 mM SAH. 25 μL of the reaction from the 384-well OptiPlate was then transferred to a 384-well Flashplate and the biotinylated peptides were allowed to bind to the streptavidin surface for at least 1 h, before being washed twice with 50 mMTris-HCl, pH 8, 0.1% Tween-20. The plates were then read in a PerkinElmer Topcount plate reader to measure the quantity of ^3H-labeled peptide bound to the Flashplate surface measured as disintegrations per minute (dpm), also referred to as counts per minute (cpm).
The IC50 values were calculated using a 4-parameter variable slope fit algorithm (cpm—counts per minute, cmpd—signal in assay well, and cpmmax and cpmmin mare the respective minimum and maximum signal controls).

Row | SMILES | pIC50 (PRMT5/MEP50) | GI50 (Z-138 cells) [µM]
1 | O=C(NC[C@H](O)[C@@H](O)CN1CCc2ccccc2C1)c1cn2cc(-c3cnn([C@@H]4CCOC4)c3)ccc2n1 [Example 79, N-((2S,3S)-4-(3,4-dihydroisoquinolin-2(1H)-yl)-2,3-dihydroxybutyl)-6-(1-((R)-tetrahydrofuran-3-yl)-1H-pyrazol-4-yl)imidazo[1,2-a]pyridine-2-carboxamide] | 6.00 to 8.00 | 0.01 to 1
2 | Cn1ccc(-c2ccc3nc(C(=O)NC[C@H](O)[C@@H](O)CN4CCc5ccccc5C4)cn3c2)cc1=O [Example 80, N-((2S,3S)-4-(3,4-dihydroisoquinolin-2(1H)-yl)-2,3-dihydroxybutyl)-6-(1-methyl-2-oxo-1,2-dihydropyridin-4-yl)imidazo[1,2-a]pyridine-2-carboxamide] | 6.00 to 8.00 | 0.01 to 1
3 | Cn1cc(-c2ccc3nc(C(=O)NC[C@H](O)[C@@H](O)CN4CCc5ccccc5C4)cn3c2)cn1 [Example 81, N-((2S,3S)-4-(3,4-dihydroisoquinolin-2(1H)-yl)-2,3-dihydroxybutyl)-6-(1-methyl-1H-pyrazol-4-yl)imidazo[1,2-a]pyridine-2-carboxamide] | 6.00 to 8.00 | 0.01 to 1
4 | Cn1cc(-c2ccc3nc(C(=O)NC[C@H](O)CN4CCc5cc(F)ccc5C4)cn3c2)cn1 [Example 82, (S)—N-(3-(6-fluoro-3,4-dihydroisoquinolin-2(1H)-yl)-2-hydroxypropyl)-6-(1-methyl-1H-pyrazol-4-yl)imidazo[1,2-a]pyridine-2-carboxamide] | 5.30 to 6.00 | 1 to 5
5 | O=C(NC[C@H](O)CN1CCc2cc(F)ccc2C1)c1cn2nc(C(F)(F)F)ccc2n1 [Example 83, (S)—N-(3-(6-fluoro-3,4-dihydroisoquinolin-2(1H)-yl)-2-hydroxypropyl)-6-(trifluoromethyl)imidazo[1,2-b]pyridazine-2-carboxamide] | < 5.30 | > 5
6 | O=C(NC[C@H](O)CN1CCc2cc(F)ccc2C1)c1cn2cc(C(F)(F)F)ncc2n1 [Example 84, (S)—N-(3-(6-fluoro-3,4-dihydroisoquinolin-2(1H)-yl)-2-hydroxypropyl)-6-(trifluoromethyl)imidazo[1,2-a]pyrazine-2-carboxamide] | 5.30 to 6.00 | 1 to 5
7 | Cn1ccc(-c2cn3cc(C(=O)NC[C@H](O)CN4CCc5cc(F)ccc5C4)nc3cn2)cc1=O [Example 85, (S)—N-(3-(6-fluoro-3,4-dihydroisoquinolin-2(1H)-yl)-2-hydroxypropyl)-6-(1-methyl-2-oxo-1,2-dihydropyridin-4-yl)imidazo[1,2-a]pyrazine-2-carboxamide] | 5.30 to 6.00 | 1 to 5
8 | CN(C[C@H](O)CN1CCc2ccccc2C1)C(=O)c1cc2nc(C(F)(F)F)ccn2n1 [Example 90, (R)—N-(3-(3,4-dihydroisoquinolin-2(1H)-yl)-2-hydroxypropyl)-N-methyl-5-(trifluoromethyl)pyrazolo[1,5-a]pyrimidine-2-carboxamide] | 5.30 to 6.00 | > 5
9 | O=C(NCC(O)CNC1Cc2ccccc2C1)c1cn2cc(C3CCOCC3)ccc2n1 (stereo not shown) [Example 97, N-(3-((2,3-dihydro-1H-inden-2-yl)amino)-2-hydroxypropyl)-6-(tetrahydro-2H-pyran-4-yl)imidazo[1,2-a]pyridine-2-carboxamide] | 6.00 to 8.00 | 0.01 to 1
10 | CC(=O)N1CCC(c2ccc3nc(C(=O)NCC(O)CNC4Cc5ccccc5C4)cn3c2)CC1 (stereo not shown) [Example 98, 6-(1-acetylpiperidin-4-yl)-N-(3-((2,3-dihydro-1H-inden-2-yl)amino)-2-hydroxypropyl)imidazo[1,2-a]pyridine-2-carboxamide] | 6.00 to 8.00 | 0.01 to 1
11 | Cn1ccc(-c2ccc3nc(C(=O)NCC(O)CNC4Cc5ccccc5C4)cn3c2)cc1=O (stereo not shown) [Example 99, N-(3-((2,3-dihydro-1H-inden-2-yl)amino)-2-hydroxypropyl)-6-(1-methyl-2-oxo-1,2-dihydropyridin-4-yl)imidazo[1,2-a]pyridine-2-carboxamide] | 6.00 to 8.00 | 0.01 to 1
12 | O=C(NCC(O)CN1CCc2ccccc2C1)c1cn2c(n1)CCCC2 (stereo not shown) [Example 101, N-(3-(3,4-dihydroisoquinolin-2(1H)-yl)-2-hydroxypropyl)-5,6,7,8-tetrahydroimidazo[1,2-a]pyridine-2-carboxamide] | 5.30 to 6.00 | > 5
13 | O=C(NC[C@H](O)[C@@H](O)CN1CCc2ccccc2C1)c1cn2c(n1)CCC(C(F)(F)F)C2 (stereo partly drawn) [Example 117, N-((2S,3S)-4-(3,4-dihydroisoquinolin-2(1H)-yl)-2,3-dihydroxybutyl)-6-(trifluoromethyl)-5,6,7,8-tetrahydroimidazo[1,2-a]pyridine-2-carboxamide] | 6.00 to 8.00 | 0.01 to 1
14 | CN(C[C@H](O)CN1CCc2ccccc2C1)C(=O)c1cn2c(n1)CCC(C(F)(F)F)C2 (stereo partly shown) [Example 119] | 6.00 to 8.00 | 0.01 to 1
15 | Cn1cc([C@H]2CCc3nc(C(=O)NC[C@H](O)CN4CCc5ccccc5C4)cn3C2)cn1 [Example 120A, (R)—N—((S)-3-(3,4-dihydroisoquinolin-2(1H)-yl)-2-hydroxypropyl)-6-(1-methyl-1H-pyrazol-4-yl)-5,6,7,8-tetrahydroimidazo[1,2-a]pyridine-2-carboxamide] | 6.00 to 8.00 | 0.01 to 1
16 | Cn1cc([C@@H]2CCc3nc(C(=O)NC[C@H](O)CN4CCc5ccccc5C4)cn3C2)cn1 [Example 120B, (S)—N—((S)-3-(3,4-dihydroisoquinolin-2(1H)-yl)-2-hydroxypropyl)-6-(1-methyl-1H-pyrazol-4-yl)-5,6,7,8-tetrahydroimidazo[1,2-a]pyridine-2-carboxamide] | 6.00 to 8.00 | 1 to 5

Continued, in another order:

Row | pIC50 (PRMT5/MEP50) | SMILES | GI50 (Z-138 cells) [µM]
17 | 6.00 to 8.00 | CN(C[C@H](O)CN1CCc2ccccc2C1)C(=O)c1cn2cc(C(F)(F)F)ccc2n1 [Example 88, (R)—N-(3-(3,4-dihydroisoquinolin-2(1H)-yl)-2-hydroxypropyl)-N-methyl-6-(trifluoromethyl)imidazo[1,2-a]pyridine-2-carboxamide] | 0.01 to 1
18 | 6.00 to 8.00 | CN(C[C@H](O)CN1CCc2ccccc2C1)C(=O)c1cn2cc(C(F)(F)F)ncc2n1 [Example 89, (R)—N-(3-(3,4-dihydroisoquinolin-2(1H)-yl)-2-hydroxypropyl)-N-methyl-6-(trifluoromethyl)imidazo[1,2-a]pyrazine-2-carboxamide] | 0.01 to 1
19 | 5.30 to 6.00 | CN(C[C@H](O)CN1CCc2ccccc2C1)C(=O)c1cn2nc(C(F)(F)F)ccc2n1 [Example 91, (R)—N-(3-(3,4-dihydroisoquinolin-2(1H)-yl)-2-hydroxypropyl)-N-methyl-6-(trifluoromethyl)imidazo[1,2-b]pyridazine-2-carboxamide] | > 5
20 | 6.00 to 8.00 | CN(C[C@H](O)CN1CCc2ccccc2C1)C(=O)c1cn2cc(-c3cnn(C)c3)ncc2n1 [Example 92, (R)—N-(3-(3,4-dihydroisoquinolin-2(1H)-yl)-2-hydroxypropyl)-N-methyl-6-(1-methyl-1H-pyrazol-4-yl)imidazo[1,2-a]pyrazine-2-carboxamide] | 1 to 5
21 | 5.30 to 6.00 | CN(C[C@H](O)CN1CCc2ccccc2C1)C(=O)c1cn2cc(-c3ccc(=O)n(C)c3)ncc2n1 [Example 94, (R)—N-(3-(3,4-dihydroisoquinolin-2(1H)-yl)-2-hydroxypropyl)-N-methyl-6-(1-methyl-6-oxo-1,6-dihydropyridin-3-yl)imidazo[1,2-a]pyrazine-2-carboxamide] | 1 to 5
22 | 6.00 to 8.00 | CN(C[C@H](O)CN1CCc2ccccc2C1)C(=O)c1cn2cc(-c3ccc(C#N)cc3)ncc2n1 [Example 95, (R)-6-(4-cyanophenyl)-N-(3-(3,4-dihydroisoquinolin-2(1H)-yl)-2-hydroxypropyl)-N-methylimidazo[1,2-a]pyrazine-2-carboxamide] | 0.01 to 1
23 | 6.00 to 8.00 | N#Cc1ccc2nc(C(=O)NC[C@H](O)CN3CCc4ccccc4C3)cn2c1 [Example 123, (S)-6-cyano-N-(3-(3,4-dihydroisoquinolin-2(1H)-yl)-2-hydroxypropyl)imidazo[1,2-a]pyridine-2-carboxamide] | 0.01 to 1
